Where two headings read alike, the source gives them in different places. *1 amine or outer side, *2 acyl side, *3 side chain or, on linkers, in order; H or OH if unused. Where a SMILES comes first, the peptide text is derived from it. Side-chain parts run from the residue outwards. [ ]: non-standard residue; d: D form. The star is where a group is joined. ξ: configuration not given here. 2Naphthoyl(6-OH) = O=C(c1ccc2cc(O)ccc2c1)*; NMeW = CN[C@@H](Cc1c[nH]c2ccccc12)C(=O)O; ξαMeW = CC(N)(Cc1c[nH]c2ccccc12)C(=O)O; Butanoyl(3,3-Me2) = CC(C)(C)CC(=O)*; Isobutyloxycarbonyl = CC(C)COC(=O)*; Isopropoxycarbonyl = CC(C)OC(=O)*; NMeF = CN[C@@H](Cc1ccccc1)C(=O)O; NMeD = CN[C@@H](CC(=O)O)C(=O)O; NH(2-Me-phenyl) = Cc1ccccc1N*; X17 = O=C(C=Cc1ccccc1O)*; βNA = c1ccc2cc(N*)ccc2c1; Cbz = O=C(OCc1ccccc1)*; Boc = CC(C)(C)OC(=O)*; CO = O=C([*:1])[*:2]; NHtBu = CC(C)(C)N*; Ms = CS(=O)(=O)* Some results are limits rather than exact numbers.

IC50 data for 16 compounds are collected here from US5270302A, “Derivatives of tetrapeptides as CCK agonists” (priority 1991, dated 1993).

One assay has as its target T1, Type-A CCK receptor (Cavia porcellus, UniProt Q63931).
T1 construct: Cortical and pancreatic membranes were prepared as described; from tissue; host or cells: guinea pig pancreas membranes
T1 sequence (Q63931 1-430): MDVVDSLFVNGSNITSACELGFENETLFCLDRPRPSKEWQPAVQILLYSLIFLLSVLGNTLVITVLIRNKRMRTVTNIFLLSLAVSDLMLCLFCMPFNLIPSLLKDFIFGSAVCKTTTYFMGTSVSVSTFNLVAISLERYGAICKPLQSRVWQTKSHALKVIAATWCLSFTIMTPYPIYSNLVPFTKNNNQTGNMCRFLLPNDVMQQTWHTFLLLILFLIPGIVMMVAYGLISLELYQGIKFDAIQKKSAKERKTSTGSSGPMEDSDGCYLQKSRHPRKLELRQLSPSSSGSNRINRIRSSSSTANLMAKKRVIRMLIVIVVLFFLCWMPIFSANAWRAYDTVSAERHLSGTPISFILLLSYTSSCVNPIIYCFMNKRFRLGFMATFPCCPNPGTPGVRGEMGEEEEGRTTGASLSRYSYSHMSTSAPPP
Briefly: Radioligand binding of [125I]BH-CCK-8 in guinea pig pancreatic membrane preparations. From the text:
(§1) CCK-8 [Asp-Tyr(SO3 H)-Met-Gly-Trp-Met-Asp-PheNH2 ], bestatin and phosphoramidion were purchased from Peptide International (Louisville, Ky.). EGTA (ethylene glycol-bis-(β-aminoethyl) N,N,N',N'-tetraacetic acid), HEPES (4-(2-hydroxyethyl)-1-piperazine-enthanesulfonic acid) and BSA (bovine serum albumin) were purchased from Sigma Chemical Co. (St. Louis, Mo.). [^125 I]-Bolton-Hunteer (BH-CCK-8) (specific activity, 2200 Ci/mmol) was obtained from New England Nuclear (Boston, Mass.). Male guinea pigs, 250 to 325 g, were obtained from Scientific Small Animal Laboratory and Farm (Arlington Heights, Ill.). Collagenase, code CLSPA was purchased from Worthington (Frehold, N.J.).
(§2) Protocol For Radioligand Binding Experiments in Guinea Pig Cerebral Cortical and Pancreatic Membrane Preparations
(§3) Cortical and pancreatic membranes were prepared as described (Lin and Miller; J. Pharmacol. Exp. Ther. 1985, 232:775-780,). In brief, cortex and pancreas were removed and rinsed with ice-cold saline. Visible fat and connective tissues were removed from the pancreas. […] The homogenates were entrifuged for 10 minutes at 1075×g and pellets were discarded. The supernatants were saved and centrifuged at 38,730×g for 20 minutes. The resultant pellets were rehomogenized in 25 mL of 50 mM Tris-HCl buffer with a Teflon-glass homogenizer, 5 up and down strokes. The homogenates were centrifuged again at 38,730×g for 20 minutes. Pellets werre then resuspended in 20 mM HEPES, containing 1 mM EGTA, 118 mM NaCl, 4.7 mM KCl, 5 mM MgCl2, 100 μM bestatin, 3 μM phosphoramidon, pH 7.4 at 22° C. with a Teflon-glass homogenizer, 15 up and down strokes. Resuspension volume for the cortex was 15-18 mL per gram of original wet weight and 60 mL per gram for the pancreas.
(§4) [^125 I]Bolton-Hunter CCK-8 and test compounds were diluted with HEPES-EGTA-salt buffer (see above) containing 0.5% BSA. To 1 mL Skatron polystyrene tubes were added 25 μL of test compounds, 25 μL of [^125 I]BH-CCK-8 and 200 μL of membrane suspension. The final BSA concentration was 0.1%. The cortical tissues were incubated at 30° C. for 150 minutes and pancreatic tissues were incubated at 37° C. for 150 min. Incubations were terminated by filtration using Skatron Cell Harvester and SS32 microfiber filter mats. […] IC50 s were determined from the Hill analysis.

For a further assay, the target named is T2, Type-B CCK receptor (Cavia porcellus, UniProt H0VZC5).
T2 construct: Cortical and pancreatic membranes were prepared as described; from tissue; host or cells: guinea pig cerebral cortex membranes
T2 sequence (H0VZC5 1-426): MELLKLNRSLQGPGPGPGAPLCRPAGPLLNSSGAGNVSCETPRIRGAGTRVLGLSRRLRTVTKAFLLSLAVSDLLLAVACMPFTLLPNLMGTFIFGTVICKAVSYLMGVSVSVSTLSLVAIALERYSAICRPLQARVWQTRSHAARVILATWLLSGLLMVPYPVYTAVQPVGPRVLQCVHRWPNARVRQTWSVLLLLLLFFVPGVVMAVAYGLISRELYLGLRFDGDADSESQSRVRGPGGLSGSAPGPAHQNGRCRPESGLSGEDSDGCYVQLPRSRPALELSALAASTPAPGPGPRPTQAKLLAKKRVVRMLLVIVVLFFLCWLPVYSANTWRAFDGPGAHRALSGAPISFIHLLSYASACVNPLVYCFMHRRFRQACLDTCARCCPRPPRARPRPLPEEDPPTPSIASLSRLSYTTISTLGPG
Briefly: Radioligand binding of [125I]BH-CCK-8 in guinea pig cerebral cortical membrane preparations.
Excerpt: as §1, §2, §3, §4

Where [1] appears, read: IC50 (nM) 125I-BH-CCK-8 Type-A receptor, guinea pig pancreatic membranes, 37° C., 150 min.
Setting [2] is: IC50 (nM) 125I-BH-CCK-8 Type-B receptor, guinea pig cortical membranes, 30° C., 150 minutes.
[3] abbreviates: guinea pig pancreatic membranes, 37° C., 150 min, read-out: IC50 (nM) 125I-BH-CCK-8 Type-A receptor.
[4] abbreviates: guinea pig cortical membranes, 30° C., 150 minutes, read-out: IC50 (nM) 125I-BH-CCK-8 Type-B receptor.

As for `Cc1ccccc1NC(=O)NCCCC[C@H](NC(=O)C(C)(N)Cc1c[nH]c2ccccc12)C(=O)N[C@@H](CC(=O)O)C(=O)N(C)[C@@H](Cc1ccccc1)C(N)=O` (single isomer, unassigned; isomer b) [Example 99, (α-Methyl)Trp-Lys(ε-N-(2-methylphenyl)aminocarbonyl)-Asp-(NMe)PheNH2 (Isomer B)], the IC50 is 67 nM at Type-A CCK receptor (setting [1]) and more than 10000 nM at Type-B CCK receptor (setting [2]).

With `Cc1ccccc1NC(=O)NCCCC[C@H](NC(=O)[C@H](Cc1c[nH]c2ccccc12)NC(=O)NC(C)(C)C)C(=O)N[C@@H](CC(=O)O)C(=O)N(C)[C@@H](Cc1ccccc1)C(N)=O` [Example 82, t-Butylaminocarbonyl-Trp-Lys(ε-N-(2-methylphenyl)aminocarbonyl)-Asp(NMe)PheNH2] ({NHtBu-CO}-WK([CO-NH(2-Me-phenyl)])D[NMeF]-NH2), the IC50 at Type-A CCK receptor worked out at 4.9 nM; at Type-B CCK receptor, 4400 nM.

Turning to `Cc1ccccc1NC(=O)NCCCC[C@H](NC(=O)[C@H](Cc1c[nH]c2ccccc12)NC(=O)OC(C)C)C(=O)N[C@@H](CC(=O)O)C(=O)N(C)[C@@H](Cc1ccccc1)C(N)=O` [Example 78, Isopropyloxycarbonyl-Trp-Lys(ε-N-(2-methylphenyl)aminocarbonyl)-Asp-(NMe)PheNH2] (Isopropoxycarbonyl-WK([CO-NH(2-Me-phenyl)])D[NMeF]-NH2), the IC50 at Type-A CCK receptor (setting [1]) is 1.6 nM; on Type-B CCK receptor, 5000 nM.

For the compound `CC(C)(C)OC(=O)N[C@@H](Cc1c[nH]c2ccccc12)C(=O)N[C@@H](CCCCNC(=O)Nc1ccc2ccccc2c1)C(=O)N[C@@H](CC(=O)O)C(=O)N[C@@H](Cc1ccccc1)C(N)=O` [Example 44, t-BOC-Trp-Lys(ε-N-(β-naphthyl)aminocarbonyl)-Asp-PheNH2] (Boc-WK([CO-βNA])DF-NH2), the values for the IC50 at Type-A CCK receptor (setting [3]) and at Type-B CCK receptor were 16 nM and 3200 nM, respectively.

For the compound `CC(C)(C)OC(=O)N[C@@H](Cc1c[nH]c2ccccc12)C(=O)N[C@@H](CCCCNC(=O)C=Cc1ccccc1O)C(=O)N[C@@H](CC(=O)O)C(=O)N[C@@H](Cc1ccccc1)C(N)=O` [Example 22, t-BOC-Trp-Lys(ε-N-(2-hydroxycinnamoyl))-Asp-PheNH2] (Boc-WK(X17)DF-NH2), the IC50 was determined as 81 nM at Type-A CCK receptor (setting [3]) and 200 nM at Type-B CCK receptor (setting [4]).

Turning to `CN[C@@H](Cc1c[nH]c2ccccc12)C(=O)N[C@@H](CCCCNC(=O)Nc1ccccc1C)C(=O)N[C@@H](CC(=O)O)C(=O)N(C)[C@@H](Cc1ccccc1)C(N)=O` [Example 101, (NMe)Trp-Lys(ε-N-(2-methylphenyl)aminocarbonyl)-Asp-(NMe)PheNH2] (H-[NMeW]K([CO-NH(2-Me-phenyl)])D[NMeF]-NH2), the IC50 worked out at 9.3 nM at Type-A CCK receptor (setting [1]) and 12000 nM at Type-B CCK receptor (setting [2]).

As for `Cc1ccccc1NC(=O)NCCCC[C@H](NC(=O)[C@H](Cc1c[nH]c2ccccc12)NS(C)(=O)=O)C(=O)N[C@@H](CC(=O)O)C(=O)N(C)[C@@H](Cc1ccccc1)C(N)=O` [Example 95, Methylsufonamyl-Trp-Lys(ε-N-(2-methylphenyl)aminocarbonyl)-Asp-(NMe)PheNH2] (Ms-WK([CO-NH(2-Me-phenyl)])D[NMeF]-NH2), the IC50 was 47 nM at Type-A CCK receptor (setting [3]) and more than 10000 nM on Type-B CCK receptor (setting [4]).

Take `Cc1ccccc1NC(=O)NCCCC[C@H](NC(=O)CCc1c[nH]c2ccccc12)C(=O)N[C@@H](CC(=O)O)C(=O)N(C)[C@@H](Cc1ccccc1)C(N)=O` [Example 70, 3-(Indol-3-yl)propionyl-Lys(ε-N-(2-methylphenyl)aminocarbonyl)-Asp-(NMe)PheNH2]: the IC50 on Type-A CCK receptor (setting [3]) was 13 nM; on Type-B CCK receptor (setting [4]) it was more than 10000 nM.

In the case of `Cc1ccccc1NC(=O)NCCCC[C@H](NC(=O)CCc1cccc2ccccc12)C(=O)N[C@@H](CC(=O)O)C(=O)N(C)[C@@H](Cc1ccccc1)C(N)=O` [Example 111, (3-(α-Naphthyl)propionyl)-Lys(ε-N-(2-methylphenyl)aminocarbonyl)-Asp-(NMe)PheNH2], the IC50 at Type-A CCK receptor (setting [3]) was 77 nM; at Type-B CCK receptor (setting [4]) it was more than 10000 nM.

As to `Cc1ccccc1NC(=O)NCCCC[C@H](NC(=O)C(C)(N)Cc1c[nH]c2ccccc12)C(=O)N(C)[C@@H](CC(=O)O)C(=O)N[C@@H](Cc1ccccc1)C(N)=O` (some centres unmarked) [Example 123] (H-[ξαMeW]K([CO-NH(2-Me-phenyl)])[NMeD]F-NH2), the IC50 is 5.9 nM on Type-A CCK receptor (setting [1]) and more than 10000 nM on Type-B CCK receptor (setting [2]).

In the case of `Cc1ccccc1NC(=O)NCCCC[C@H](NC(=O)[C@H](Cc1c[nH]c2ccccc12)NC(=O)CC(C)(C)C)C(=O)N(C)[C@@H](CC(=O)O)C(=O)N[C@@H](Cc1ccccc1)C(N)=O` [Example 88B, t-butylacetyl-Trp-Lys(ε-N-(2-methylphenyl)aminocarbonyl)-(NMe)Asp-PheNH2] ({Butanoyl(3,3-Me2)}-WK([CO-NH(2-Me-phenyl)])[NMeD]F-NH2), the figures for the IC50 at Type-A CCK receptor (setting [1]) and on Type-B CCK receptor (setting [2]) were 3.7 nM and more than 10000 nM, respectively.

In the case of `Cc1ccccc1NC(=O)NCCCC[C@H](NC(=O)[C@H](Cc1c[nH]c2ccccc12)NC(=O)OC(C)(C)C)C(=O)N[C@@H](CC(=O)O)C(=O)N1CCC[C@]1(Cc1ccccc1)C(N)=O` [Example 115, t-BOC-Trp-Lys(ε-N-(2-methylphenyl)aminocarbonyl)-Asp-(S)-α-benzylprolinamide], the IC50 at Type-A CCK receptor (setting [1]) was 18 nM; on Type-B CCK receptor (setting [2]), more than 10000 nM.

Regarding `Cc1ccccc1NC(=O)NCCCC[C@H](NC(=O)C(F)Cc1c[nH]c2ccccc12)C(=O)N(C)[C@@H](CC(=O)O)C(=O)N[C@@H](Cc1ccccc1)C(N)=O` (some centres unmarked) [Example 109, (2-Fluoro-3-(3-indolyl)propionyl)-Lys(ε-N-(2-methylphenyl)aminocarbonyl)-(NMe)Asp-PheNH2], the IC50 is 15 nM at Type-A CCK receptor (setting [3]) and more than 10000 nM on Type-B CCK receptor (setting [4]).

Regarding `Cc1ccccc1NC(=O)NCCCC[C@H](NC(=O)[C@H](Cc1c[nH]c2ccccc12)NC(=O)OCc1ccccc1)C(=O)N[C@@H](CC(=O)O)C(=O)N(C)[C@@H](Cc1ccccc1)C(N)=O` [Example 76, Benzyloxycarbonyl-Trp-Lys(ε-N-(2-methylphenyl)aminocarbonyl)-Asp-(NMe)PheNH2] (Cbz-WK([CO-NH(2-Me-phenyl)])D[NMeF]-NH2), the results for the IC50 at Type-A CCK receptor and at Type-B CCK receptor were 18 nM and 6400 nM, respectively.

`CN(C(=O)[C@H](CCCCNC(=O)c1ccc2cc(O)ccc2c1)NC(=O)[C@H](Cc1c[nH]c2ccccc12)NC(=O)OC(C)(C)C)[C@@H](CC(=O)O)C(=O)N(C)[C@@H](Cc1ccccc1)C(N)=O` [Example 73] (Boc-WK(2Naphthoyl(6-OH))[NMeD][NMeF]-NH2): the IC50 at Type-A CCK receptor (setting [3]) came to 15 nM; at Type-B CCK receptor (setting [4]), 3700 nM.

As for `Cc1ccccc1NC(=O)NCCCC[C@H](NC(=O)[C@H](Cc1c[nH]c2ccccc12)NC(=O)OCC(C)C)C(=O)N[C@@H](CC(=O)O)C(=O)N(C)[C@@H](Cc1ccccc1)C(N)=O` [Example 77, Isobutyloxycarbonyl-Trp-Lys(ε-N-(2-methylphenyl)aminocarbonyl)-Asp-(NMe)PheNH2] (Isobutyloxycarbonyl-WK([CO-NH(2-Me-phenyl)])D[NMeF]-NH2), the IC50 was determined as 2.3 nM at Type-A CCK receptor (setting [1]) and 6500 nM at Type-B CCK receptor (setting [2]).
